Results: patent US20110034703A1, “CRYSTAL FORMS OF N-[2-(DIETHYLAMINO)ETHYL]-5-[(5-FLUORO-1,2-DIHYDRO-2-OXO-3H-INDOL-3-YLIDENE)METHYL]-2,4-DIMETHYL-1H-PYRROLE-3-CARBOXAMIDE AND METHODS FOR THEIR PREPARATION” (ratiopharm GmbH, priority 2008, published 2011)
Entries after “also recorded” stand apart in the source; their conditions may differ.

Assay: Dynamic moisture sorption gravimetry (DMSG), hygroscopicity
Type: physicochemical
Conditions: for hygroscopicity (in words): DMSG data; for moisture sorption referred to the weight of the sample: DMSG, change in RH of 5% per hour
Description: DMSG was performed using an SPS11-100n instrument (Projekt Messtechnik) at a constant temperature of 25° C. and a change in RH of 5% per hour including isohumid conditions for 5 hours at 0% RH and for 2 hours at 50% RH.

Row | hygroscopicity (in words) (listed as polymorph I) | hygroscopicity (in words) (listed as polymorphic form I) | moisture sorption referred to the weight of the sample (25° C.) | hygroscopicity (in words) (listed as polymorphic form III) | weight gain under DMSG (even at a relative humidity of 95%, 25° C.) | moisture sorption referred to the weight of the sample (25° C., listed as polymorphic form II) | Compound | hygroscopicity (in words) | hygroscopicity (in words) (listed as polymorphic form II)
1 | only slightly hygroscopic | very low hygroscopicity | about 1% |  |  |  | CCN(CC)CCNC(=O)c1c(C)[nH]c(/C=C2\C(=O)Nc3ccc(F)cc32)c1C [Polymorph I, N-[2-(diethylamino)ethyl]-5-[(5-fluoro-1,2-dihydro-2-oxo-3H-indol-3-ylidene)methyl]-2,4-dimethyl-1H-pyrrole-3-carboxamide] | low hygroscopicity; also recorded: only very slightly hygroscopic | 
2 |  |  |  | not hygroscopic | does not gain weight |  | CCN(CC)CCNC(=O)c1c(C)[nH]c(/C=C2\C(=O)Nc3ccc(F)cc32)c1C [Polymorph III, N-[2-(diethylamino)ethyl]-5-[(5-fluoro-1,2-dihydro-2-oxo-3H-indol-3-ylidene)methyl]-2,4-dimethyl-1H-pyrrole-3-carboxamide] | very low hygroscopicity; also recorded: not hygroscopic at all | 
3 |  |  |  |  |  | more than 6% | CCN(CC)CCNC(=O)c1c(C)[nH]c(/C=C2\C(=O)Nc3ccc(F)cc32)c1C [Polymorph II, N-[2-(diethylamino)ethyl]-5-[(5-fluoro-1,2-dihydro-2-oxo-3H-indol-3-ylidene)methyl]-2,4-dimethyl-1H-pyrrole-3-carboxamide] | clearly hygroscopic | slightly more hygroscopic; also recorded: some hygroscopicity
